{"source": "paper PMC7093416", "about": "“Selective USP7 inhibition elicits cancer cell killing through a p53-dependent mechanism” (Scientific Reports, 2020)", "key": {"[1]": {"tested_on": "60 DUBs in HEK293AD lysate", "assay": "In situ DUB profiling: competitive ABPP with Bio-Ub-PA/Bio-Ub-VME and quantitative MS", "format": "binding, human", "conditions": "in vitro and activity-based proteomic profiling", "experimental": "(§1) DUB profiling was performed using conditions similar to those in Lawson et al[63]. HEK 293AD cells were lysed using target engagement lysis buffer (50 mM Tris pH 8.0, 150 mM NaCl, 5 mM MgCl2, 0.5 mM EDTA, 0.5% NP-40, 10% glycerol, 1 mM TCEP, protease and phosphatase inhibitors), and the lysate was cleared by centrifugation. Samples were diluted to 2 mg/mL, and 1 mL lysate was incubated with the indicated concentration of XL177A for 5 hours at RT. Excess inhibitor was removed using a 30 K Amicon spin filter, then the resulting lysate was incubated with 1 μM each of Biotin-Ub-PA and Biotin-Ub-VME for 90 minutes at RT. SDS was added to a final concentration of 1.2%, and samples were heated to 80 °C for 5 minutes. After cooling to RT, 1X PBS was added to dilute the final SDS concentration to 0.2%. 100 μL streptavidin agarose slurry was added to each sample, followed by incubation at RT for 3 hours. After streptavidin enrichment, samples were washed vigorously (2×0.2% SDS, 3x PBS, 3x ddH2O). […]\n(§2) To remove rapigest, recovered supernatants were acidified with 10% TFA, incubated at 37 °C for 45 minutes, and centrifuged at 14,000 rpm for 15 minutes at 4 °C. […] Eluted peptides were then analyzed by nanoflow LC-MS/MS as described[64] with a NanoAcquity UPLC system (Waters, Milford, MA) interfaced to a QExactive HF mass spectrometer (Thermofisher Scientific, San Jose, CA). […]"}, "[2]": {"target": "T1, 60 DUBs in HEK293AD lysate (Homo sapiens, UniProt Q93009)", "T1 construct": "endogenous in cells; host or cells: HEK 293AD lysate", "T1 sequence (Q93009 whole entry)": "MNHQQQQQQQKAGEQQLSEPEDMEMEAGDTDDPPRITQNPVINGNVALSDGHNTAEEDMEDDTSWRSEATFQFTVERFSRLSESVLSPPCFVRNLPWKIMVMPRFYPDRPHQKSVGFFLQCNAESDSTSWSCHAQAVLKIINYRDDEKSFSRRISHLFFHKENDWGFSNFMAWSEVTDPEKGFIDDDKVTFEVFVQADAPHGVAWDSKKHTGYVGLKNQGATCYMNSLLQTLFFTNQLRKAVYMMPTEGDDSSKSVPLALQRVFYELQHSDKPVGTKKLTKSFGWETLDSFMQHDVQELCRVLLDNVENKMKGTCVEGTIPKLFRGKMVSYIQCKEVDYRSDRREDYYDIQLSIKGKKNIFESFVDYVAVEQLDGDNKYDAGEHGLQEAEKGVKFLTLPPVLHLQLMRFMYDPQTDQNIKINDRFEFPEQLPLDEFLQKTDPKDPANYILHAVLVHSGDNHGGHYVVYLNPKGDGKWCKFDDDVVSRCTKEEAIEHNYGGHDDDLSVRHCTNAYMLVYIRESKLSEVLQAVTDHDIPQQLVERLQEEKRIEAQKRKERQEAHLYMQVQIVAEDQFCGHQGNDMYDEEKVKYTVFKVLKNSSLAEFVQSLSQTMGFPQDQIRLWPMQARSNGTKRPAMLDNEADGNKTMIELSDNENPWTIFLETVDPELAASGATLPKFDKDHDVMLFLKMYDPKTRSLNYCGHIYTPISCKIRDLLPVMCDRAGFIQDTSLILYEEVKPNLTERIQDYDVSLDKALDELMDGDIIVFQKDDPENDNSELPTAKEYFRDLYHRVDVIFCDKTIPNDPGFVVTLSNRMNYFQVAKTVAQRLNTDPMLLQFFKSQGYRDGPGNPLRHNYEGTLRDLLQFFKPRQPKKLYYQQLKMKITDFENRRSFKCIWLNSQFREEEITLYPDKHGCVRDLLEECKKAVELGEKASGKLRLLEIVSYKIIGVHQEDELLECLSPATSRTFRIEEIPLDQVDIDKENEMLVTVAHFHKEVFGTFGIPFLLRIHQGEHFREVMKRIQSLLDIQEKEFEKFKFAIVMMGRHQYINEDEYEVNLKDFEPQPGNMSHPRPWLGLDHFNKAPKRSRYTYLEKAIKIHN", "assay": "In situ DUB profiling: competitive ABPP with Bio-Ub-PA/Bio-Ub-VME and quantitative MS", "format": "binding", "conditions": "HEK293 crude cell extract, 5 hours pre-incubation", "experimental": "as §1, §2"}}}
{"compound": "CN1CCN(CCC(=O)Nc2ccc3c(=O)n(CC4(O)CCN(C(=O)[C@@H](CCCNC(=O)c5ccc6c(Cl)c7c(nc6c5)CCCC7)Cc5ccccc5)CC4)cnc3c2)CC1", "note": "[XL177A]", "values": [{"measurement": "selectivity for USP7 over closely related DUBs", "setting": "[1]", "result": "> 10", "unit": "fold"}, {"measurement": "USP7 labeling by DUB ABPs", "setting": "[2]", "result": "significantly blocked USP7 labeling"}]}
